From PubChem BioAssay (NCI)
Where “and” joins values, the source holds several entries; their conditions need not be identical. Equal values may be shown once.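 Abbreviation: GI50, concentration required for 50% inhibition of growth. TGI denotes the concentration required for complete inhibition of growth.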

Tests used:
Assay in all cases: inhibition of tumour cell growth, NCI panel, 384-well format
[1] = test system: SK-MEL-5 melanoma
[2] = test system: PC-3 prostate
[3] = test system: BT-549 breast
[4] = test system: HL-60(TB) leukemia
[5] = test system: A549 NSCLC
[6] = test system: CAKI-1 renal
[7] = test system: EKVX NSCLC
[8] = test system: SF-539 CNS
[9] = test system: MDA-MB-231 breast
[10] = test system: MOLT-4 leukemia
[11] = test system: UO-31 renal
[12] = test system: NCI/ADR-RES ovarian
[13] = test system: HCC-2998 colon
[14] = test system: SF-268 CNS
[15] = test system: A498 renal
[16] = test system: RXF 393 renal
[17] = test system: COLO 205 colon
[18] = test system: HCT-116 colon
[19] = test system: NCI-H23 lung
[20] = test system: RPMI-8226 leukemia
[21] = test system: LOX IMVI melanoma
[22] = test system: M14 melanoma
[23] = test system: OVCAR-8 ovarian
[24] = test system: HCT-15 colon
[25] = test system: OVCAR-4 ovarian
[26] = test system: SW-620 colon
[27] = test system: CCRF-CEM leukemia
[28] = test system: 786-0 renal
[29] = test system: IGROV1 ovarian
[30] = test system: SR leukemia
[31] = test system: UACC-62 melanoma
[32] = test system: DU-145 prostate
[33] = test system: OVCAR-3 ovarian
[34] = test system: TK-10 renal
[35] = test system: SF-295 CNS
[36] = test system: MALME-3M melanoma
[37] = test system: HT29 colon
[38] = test system: NCI-H226 lung
[39] = test system: MCF7 breast
[40] = test system: T-47D breast
[41] = test system: NCI-H460 NSCLC
[42] = test system: HOP-92 NSCLC
[43] = test system: HOP-62 NSCLC
[44] = test system: MDA-MB-435 melanoma
[45] = test system: OVCAR-5 ovarian
[46] = test system: KM12 colon
[47] = test system: SN12C renal
[48] = test system: SK-MEL-28 melanoma
[49] = test system: HS 578T breast
[50] = test system: SNB-19 CNS
[51] = test system: SK-MEL-2 melanoma
[52] = test system: U251 glioblastoma
[53] = test system: MDA-MB-468 breast
[54] = test system: SNB-75 CNS
[55] = test system: SK-OV-3 ovarian
[56] = test system: NCI-H322M lung
[57] = test system: K-562 leukemia
[58] = test system: NCI-H522 lung
[59] = test system: ACHN renal
[60] = test system: UACC-257 melanoma

Structure (SMILES): Nc1nc2[nH]cc(CCc3ccc(C(=O)N[C@@H](CCC(=O)O)C(=O)O)cc3)c2c(=O)[nH]1
- TGI [1]: > 100 µM
- GI50 [2]: 0.0643 µM
- TGI [2]: > 100 µM
- GI50 [3]: 0.194 µM and 0.0376 µM
- GI50 [4]: 0.0148 µM and 0.0226 µM
- TGI [4]: 0.0305 µM and 0.0575 µM
- GI50 [5]: 0.355 µM and 0.294 µM
- TGI [5]: 50 µM and > 100 µM
- GI50 [6]: 0.193 µM and 0.179 µM
- TGI [6]: 50 µM and > 100 µM
- TGI [7]: > 100 µM
- GI50 [8]: 0.0721 µM and 0.0419 µM
- GI50 [9]: 0.234 µM and 0.374 µM
- TGI [9]: 1.12 µM and 1.63 µM
- GI50 [10]: 0.0121 µM and 0.0192 µM
- TGI [10]: 0.0236 µM and 0.0338 µM
- GI50 [11]: 0.195 µM and 0.0334 µM
- GI50 [12]: 0.267 µM and 0.151 µM
- TGI [12]: 50 µM and > 100 µM
- GI50 [13]: 0.0405 µM and 0.024 µM
- TGI [13]: 50 µM and > 100 µM
- GI50 [14]: 0.0458 µM and 0.0334 µM
- TGI [14]: 0.264 µM and 0.0962 µM
- TGI [15]: 50 µM and > 100 µM
- GI50 [16]: 0.0248 µM
- TGI [16]: 0.0583 µM
- GI50 [17]: 0.0379 µM and 0.0306 µM
- GI50 [18]: 0.0387 µM and 0.0618 µM
- TGI [18]: 50 µM and > 100 µM
- GI50 [19]: > 50 µM and 9.32 µM
- TGI [19]: > 100 µM
- GI50 [20]: 0.0172 µM and 0.026 µM
- TGI [20]: 0.0402 µM and 0.0528 µM
- GI50 [21]: 0.0883 µM
- TGI [21]: > 100 µM
- GI50 [22]: 0.105 µM and 0.0561 µM
- GI50 [23]: 0.0447 µM and 0.0501 µM
- TGI [23]: 50 µM and > 100 µM
- GI50 [24]: 1.16 µM and 0.506 µM
- TGI [24]: 50 µM and > 100 µM
- GI50 [25]: > 50 µM and 6.98 µM
- TGI [25]: > 100 µM
- GI50 [26]: 0.0472 µM and 0.0708 µM
- TGI [26]: 50 µM and > 100 µM
- GI50 [27]: 0.0213 µM
- TGI [27]: 0.0733 µM
- GI50 [28]: 0.0335 µM and 0.0305 µM
- TGI [28]: 50 µM and 8.17 µM
- GI50 [29]: > 50 µM and 29.8 µM
- TGI [29]: > 100 µM
- GI50 [30]: 0.0331 µM and 0.0388 µM
- GI50 [31]: 0.35 µM and 0.445 µM
- TGI [31]: 50 µM and > 100 µM
- GI50 [32]: 0.202 µM and 0.146 µM
- TGI [32]: 50 µM and > 100 µM
- GI50 [33]: 0.336 µM and 0.286 µM
- TGI [33]: 50 µM and > 100 µM
- GI50 [34]: 0.245 µM and 0.76 µM
- TGI [34]: 50 µM and > 100 µM
- GI50 [35]: 0.0316 µM and 0.0756 µM
- GI50 [36]: 3.12 µM and 0.728 µM
- TGI [36]: 50 µM and > 100 µM
- GI50 [37]: 0.257 µM and 0.089 µM
- TGI [37]: 50 µM and > 100 µM
- GI50 [38]: 0.054 µM and 0.0282 µM
- GI50 [39]: 0.0471 µM and 0.0339 µM
- TGI [39]: 50 µM and > 100 µM
- GI50 [40]: > 100 µM
- TGI [40]: > 100 µM
- GI50 [41]: 0.12 µM and 0.0792 µM
- TGI [41]: 50 µM and > 100 µM
- GI50 [42]: > 100 µM
- TGI [42]: > 100 µM
- GI50 [43]: 0.307 µM and 0.181 µM
- TGI [43]: 50 µM and > 100 µM
- TGI [44]: 50 µM and > 100 µM
- GI50 [45]: 1.31 µM and 4.2 µM
- TGI [45]: 50 µM and > 100 µM
- GI50 [46]: > 100 µM
- TGI [46]: > 100 µM
- GI50 [47]: 0.0458 µM and 0.0366 µM
- GI50 [48]: 0.167 µM
- TGI [48]: 5.61 µM
- GI50 [49]: 0.254 µM and 0.276 µM
- TGI [49]: 50 µM and > 100 µM
- GI50 [50]: 1.03 µM and 3.66 µM
- TGI [50]: 50 µM and > 100 µM
- GI50 [51]: > 50 µM
- TGI [51]: > 50 µM
- GI50 [52]: 0.243 µM and 0.249 µM
- GI50 [53]: 0.131 µM and 0.322 µM
- GI50 [54]: 0.0782 µM and 0.121 µM
- TGI [55]: > 100 µM
- GI50 [56]: > 100 µM
- TGI [56]: > 100 µM
- GI50 [57]: 0.0118 µM
- TGI [57]: 0.0248 µM
- GI50 [58]: 0.3 µM and 0.327 µM
- GI50 [59]: 0.18 µM and 0.0804 µM
- TGI [59]: 50 µM and > 100 µM

Structure (SMILES): CN1CCN(C(=O)COc2ccc(C34CC5CC(CC(C5)C3)C4)cc2)CC1
- GI50 [1]: 1.85 µM
- TGI [1]: 3.37 µM
- GI50 [2]: 8.05 µM
- TGI [2]: 20.6 µM
- GI50 [3]: 3.48 µM
- TGI [3]: 16 µM
- GI50 [4]: 1.8 µM
- TGI [4]: 3.21 µM
- GI50 [5]: 5.49 µM
- TGI [5]: 17.8 µM
- GI50 [6]: 2.22 µM
- TGI [6]: 4.56 µM
- GI50 [7]: 11.4 µM
- TGI [7]: 23.6 µM
- GI50 [8]: 3.98 µM
- TGI [8]: 13.8 µM
- GI50 [9]: 6.09 µM
- TGI [9]: 18.5 µM
- GI50 [10]: 1.79 µM
- TGI [10]: 4.27 µM
- GI50 [11]: 11.3 µM
- TGI [11]: 23.9 µM
- GI50 [12]: 7.51 µM
- TGI [12]: 20.1 µM
- GI50 [13]: 1.56 µM
- TGI [13]: 3.11 µM
- GI50 [14]: 4.74 µM
- TGI [14]: 16.2 µM
- GI50 [15]: 1.62 µM
- TGI [15]: 3.12 µM
- GI50 [16]: 1.85 µM
- TGI [16]: 4.12 µM
- GI50 [17]: 1.79 µM
- TGI [17]: 3.21 µM
- GI50 [19]: 4.5 µM
- TGI [19]: 15.9 µM
- GI50 [20]: 1.7 µM
- TGI [20]: 3.22 µM
- GI50 [21]: 2.31 µM
- TGI [21]: 5.31 µM
- GI50 [22]: 1.87 µM
- TGI [22]: 3.41 µM
- GI50 [23]: 10.3 µM
- TGI [23]: 22.1 µM
- GI50 [24]: 1.84 µM
- TGI [24]: 3.37 µM
- GI50 [60]: 2.19 µM
- TGI [60]: 4.32 µM
- GI50 [25]: 8.56 µM
- TGI [25]: 20.7 µM
- GI50 [26]: 1.78 µM
- TGI [26]: 3.31 µM
- GI50 [27]: 2.03 µM
- TGI [27]: 4.43 µM
- GI50 [28]: 1.74 µM
- TGI [28]: 3.24 µM
- GI50 [29]: 12.7 µM
- TGI [29]: 25.3 µM
- GI50 [30]: 1.68 µM
- TGI [30]: 3.08 µM
- GI50 [31]: 1.81 µM
- TGI [31]: 3.32 µM
- GI50 [32]: 12.1 µM
- TGI [32]: 24.6 µM
- GI50 [33]: 7.07 µM
- TGI [33]: 19.7 µM
- GI50 [34]: 9.41 µM
- TGI [34]: 21.3 µM
- GI50 [35]: 2.85 µM
- TGI [35]: 8.18 µM
- GI50 [36]: 1.7 µM
- TGI [36]: 3.19 µM
- GI50 [37]: 1.72 µM
- TGI [37]: 3.31 µM
- GI50 [38]: 6.3 µM
- TGI [38]: 19.3 µM
- GI50 [39]: 2.08 µM
- TGI [39]: 6.06 µM
- GI50 [40]: 2.66 µM
- TGI [40]: 10.6 µM
- GI50 [41]: 2.48 µM
- TGI [41]: 5.79 µM
- GI50 [42]: 3.58 µM
- TGI [42]: 15.7 µM
- GI50 [43]: 4.84 µM
- TGI [43]: 16.5 µM
- GI50 [44]: 3.94 µM
- TGI [44]: 13.4 µM
- GI50 [45]: 5.11 µM
- TGI [45]: 16.6 µM
- GI50 [46]: 2.18 µM
- TGI [46]: 4.77 µM
- GI50 [47]: 11.8 µM
- TGI [47]: 24.2 µM
- GI50 [48]: 1.74 µM
- TGI [48]: 3.19 µM
- GI50 [49]: 3.17 µM
- TGI [49]: 10.6 µM
- GI50 [50]: 10.5 µM
- TGI [50]: 22.3 µM
- GI50 [53]: 1.93 µM
- TGI [53]: 3.7 µM
- GI50 [54]: 11.9 µM
- TGI [54]: 24.3 µM
- GI50 [55]: 7.12 µM
- TGI [55]: 19.8 µM
- GI50 [56]: 3.81 µM
- TGI [56]: 13.5 µM
- GI50 [57]: 1.64 µM
- TGI [57]: 3.17 µM
- GI50 [58]: 8.25 µM
- TGI [58]: 20.5 µM
- GI50 [59]: 7.11 µM
- TGI [59]: 19.6 µM
